The values that follow come from ChEMBL document CHEMBL5291721, “A preclinical secondary pharmacology resource illuminates target-adverse drug reaction associations of marketed drugs” (Nat Commun, 2023).

Test [1] deals with T1, Alpha-1A adrenergic receptor (Homo sapiens, UniProt P35348).
T1 sequence (P35348 whole entry): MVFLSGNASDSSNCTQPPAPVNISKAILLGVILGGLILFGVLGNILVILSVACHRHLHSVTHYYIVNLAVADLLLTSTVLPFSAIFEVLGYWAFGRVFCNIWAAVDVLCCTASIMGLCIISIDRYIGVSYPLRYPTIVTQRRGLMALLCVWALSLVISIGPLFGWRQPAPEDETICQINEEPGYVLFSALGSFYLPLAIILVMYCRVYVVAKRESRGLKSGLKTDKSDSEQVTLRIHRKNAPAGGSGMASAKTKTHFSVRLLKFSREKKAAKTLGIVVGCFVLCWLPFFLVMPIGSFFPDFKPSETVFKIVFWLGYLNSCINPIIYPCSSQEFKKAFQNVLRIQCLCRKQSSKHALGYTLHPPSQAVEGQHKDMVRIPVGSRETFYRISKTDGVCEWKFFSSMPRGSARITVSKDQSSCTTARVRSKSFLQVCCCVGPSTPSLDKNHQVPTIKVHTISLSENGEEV
The class given is functional, cell-based.

The target of test [2] is T2, Muscarinic acetylcholine receptor M2 (Homo sapiens, UniProt P08172).
T2 sequence (P08172 whole entry): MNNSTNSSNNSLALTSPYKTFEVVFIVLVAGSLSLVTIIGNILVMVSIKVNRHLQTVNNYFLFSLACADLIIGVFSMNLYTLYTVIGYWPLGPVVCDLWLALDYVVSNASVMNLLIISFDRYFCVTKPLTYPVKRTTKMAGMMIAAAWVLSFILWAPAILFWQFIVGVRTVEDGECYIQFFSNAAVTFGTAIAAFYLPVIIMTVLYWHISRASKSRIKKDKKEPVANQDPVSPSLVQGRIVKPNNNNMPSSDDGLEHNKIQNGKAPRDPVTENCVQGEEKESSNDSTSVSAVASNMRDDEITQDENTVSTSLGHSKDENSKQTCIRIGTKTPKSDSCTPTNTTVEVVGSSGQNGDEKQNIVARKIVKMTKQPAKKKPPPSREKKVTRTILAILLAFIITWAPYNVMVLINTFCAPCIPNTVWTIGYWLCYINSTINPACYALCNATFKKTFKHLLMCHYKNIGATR
In kind it is functional, cell-based.

The target of test [3] is 5-hydroxytryptamine receptor 2B (Homo sapiens, UniProt P41595). In kind it is functional, cell-based.
The target in test [4] is Gamma-aminobutyric acid receptor subunit alpha-1 (Rattus norvegicus, UniProt P62813). The class given is functional.
Test [5] has as its target Histamine H2 receptor (Homo sapiens, UniProt P25021). In kind it is functional, cell-based.
The target of test [6] is T3, 5-hydroxytryptamine receptor 2C (Homo sapiens, UniProt P28335).
T3 sequence (P28335 whole entry): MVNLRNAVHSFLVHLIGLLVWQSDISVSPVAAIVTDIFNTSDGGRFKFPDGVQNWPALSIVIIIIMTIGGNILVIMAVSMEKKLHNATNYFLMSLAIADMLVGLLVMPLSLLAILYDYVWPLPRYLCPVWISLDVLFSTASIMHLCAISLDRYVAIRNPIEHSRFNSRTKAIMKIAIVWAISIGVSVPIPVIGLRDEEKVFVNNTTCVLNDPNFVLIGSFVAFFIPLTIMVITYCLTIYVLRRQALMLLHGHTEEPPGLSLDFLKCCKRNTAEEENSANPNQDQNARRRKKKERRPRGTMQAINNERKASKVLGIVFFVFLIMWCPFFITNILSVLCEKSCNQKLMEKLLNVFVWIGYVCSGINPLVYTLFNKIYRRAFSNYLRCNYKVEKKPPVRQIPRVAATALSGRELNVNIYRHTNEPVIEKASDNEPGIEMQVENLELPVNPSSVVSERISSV

Test [7] deals with Adenosine receptor A2a (Homo sapiens, UniProt P29274).
Test [8] addresses D(1A) dopamine receptor (Homo sapiens, UniProt P21728). The class given is functional, cell-based.
The target of test [9] is T4, Amine oxidase [flavin-containing] A (Homo sapiens, UniProt P21397).
T4 sequence (P21397 whole entry): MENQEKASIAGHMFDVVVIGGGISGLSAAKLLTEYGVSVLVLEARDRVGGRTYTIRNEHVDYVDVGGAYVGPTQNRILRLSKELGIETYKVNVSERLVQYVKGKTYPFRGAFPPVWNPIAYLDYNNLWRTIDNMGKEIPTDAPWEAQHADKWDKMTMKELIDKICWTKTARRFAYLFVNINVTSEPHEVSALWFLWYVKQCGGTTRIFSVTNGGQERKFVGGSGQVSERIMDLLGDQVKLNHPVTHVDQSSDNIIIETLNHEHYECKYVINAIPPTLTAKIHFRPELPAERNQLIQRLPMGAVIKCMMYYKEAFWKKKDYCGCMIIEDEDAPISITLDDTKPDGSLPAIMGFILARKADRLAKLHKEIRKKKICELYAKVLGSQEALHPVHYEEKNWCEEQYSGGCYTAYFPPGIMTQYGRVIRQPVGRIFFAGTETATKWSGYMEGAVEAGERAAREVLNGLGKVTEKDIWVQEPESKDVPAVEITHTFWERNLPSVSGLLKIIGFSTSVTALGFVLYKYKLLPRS
In kind it is functional.

A word on the AC50: it is the concentration at which the activity in the assay is half-maximal. Read a low AC50 as greater potency.
Note: assay procedure not described here.

Gamma-aminobutyric acid receptor subunit alpha-1, sequence (P62813 whole entry): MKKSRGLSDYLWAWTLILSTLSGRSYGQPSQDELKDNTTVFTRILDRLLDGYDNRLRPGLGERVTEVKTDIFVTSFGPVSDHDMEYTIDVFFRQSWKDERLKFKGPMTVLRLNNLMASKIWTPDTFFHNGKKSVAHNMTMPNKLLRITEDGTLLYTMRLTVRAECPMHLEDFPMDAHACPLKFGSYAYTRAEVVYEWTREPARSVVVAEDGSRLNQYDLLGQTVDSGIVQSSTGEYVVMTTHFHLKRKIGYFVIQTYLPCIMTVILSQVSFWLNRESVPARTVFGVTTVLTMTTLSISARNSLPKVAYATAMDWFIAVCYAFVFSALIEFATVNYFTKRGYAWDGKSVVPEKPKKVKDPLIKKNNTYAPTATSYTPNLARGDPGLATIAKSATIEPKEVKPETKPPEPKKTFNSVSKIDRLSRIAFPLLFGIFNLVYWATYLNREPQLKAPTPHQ
Histamine H2 receptor, sequence (P25021 whole entry): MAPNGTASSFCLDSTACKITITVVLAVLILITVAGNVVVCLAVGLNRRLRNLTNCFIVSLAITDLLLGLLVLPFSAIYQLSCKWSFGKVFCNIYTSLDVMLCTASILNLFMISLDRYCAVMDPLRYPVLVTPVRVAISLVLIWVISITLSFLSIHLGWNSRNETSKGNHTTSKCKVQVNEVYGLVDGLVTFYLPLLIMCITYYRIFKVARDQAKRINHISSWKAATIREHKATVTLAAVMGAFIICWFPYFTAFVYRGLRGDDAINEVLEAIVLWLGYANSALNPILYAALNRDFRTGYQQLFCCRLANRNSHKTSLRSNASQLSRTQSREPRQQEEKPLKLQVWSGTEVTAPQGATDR
D(1A) dopamine receptor, sequence (P21728 whole entry): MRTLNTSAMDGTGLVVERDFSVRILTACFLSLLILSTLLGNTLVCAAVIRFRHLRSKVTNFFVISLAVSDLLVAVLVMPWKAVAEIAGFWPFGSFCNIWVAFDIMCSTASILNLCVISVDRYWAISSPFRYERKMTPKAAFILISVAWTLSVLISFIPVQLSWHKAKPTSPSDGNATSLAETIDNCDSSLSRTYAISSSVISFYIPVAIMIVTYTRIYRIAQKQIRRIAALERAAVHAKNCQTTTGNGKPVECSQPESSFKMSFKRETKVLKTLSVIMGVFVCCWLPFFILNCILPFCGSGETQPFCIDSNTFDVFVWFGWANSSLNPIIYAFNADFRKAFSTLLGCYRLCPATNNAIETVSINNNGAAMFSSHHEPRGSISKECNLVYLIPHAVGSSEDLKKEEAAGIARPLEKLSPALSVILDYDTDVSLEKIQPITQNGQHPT
Adenosine receptor A2a, sequence (P29274 whole entry): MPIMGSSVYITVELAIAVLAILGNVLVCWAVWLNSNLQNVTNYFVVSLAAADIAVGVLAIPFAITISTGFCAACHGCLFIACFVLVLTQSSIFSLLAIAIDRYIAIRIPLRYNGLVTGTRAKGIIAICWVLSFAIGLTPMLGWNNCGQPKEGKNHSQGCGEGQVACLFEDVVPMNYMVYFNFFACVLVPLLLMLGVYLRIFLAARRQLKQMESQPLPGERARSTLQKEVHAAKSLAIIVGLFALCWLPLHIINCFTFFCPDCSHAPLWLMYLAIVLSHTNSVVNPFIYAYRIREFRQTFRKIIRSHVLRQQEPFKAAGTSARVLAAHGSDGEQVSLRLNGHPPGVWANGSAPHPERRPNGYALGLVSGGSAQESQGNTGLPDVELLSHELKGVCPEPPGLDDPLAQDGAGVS
5-hydroxytryptamine receptor 2B, sequence (P41595 whole entry): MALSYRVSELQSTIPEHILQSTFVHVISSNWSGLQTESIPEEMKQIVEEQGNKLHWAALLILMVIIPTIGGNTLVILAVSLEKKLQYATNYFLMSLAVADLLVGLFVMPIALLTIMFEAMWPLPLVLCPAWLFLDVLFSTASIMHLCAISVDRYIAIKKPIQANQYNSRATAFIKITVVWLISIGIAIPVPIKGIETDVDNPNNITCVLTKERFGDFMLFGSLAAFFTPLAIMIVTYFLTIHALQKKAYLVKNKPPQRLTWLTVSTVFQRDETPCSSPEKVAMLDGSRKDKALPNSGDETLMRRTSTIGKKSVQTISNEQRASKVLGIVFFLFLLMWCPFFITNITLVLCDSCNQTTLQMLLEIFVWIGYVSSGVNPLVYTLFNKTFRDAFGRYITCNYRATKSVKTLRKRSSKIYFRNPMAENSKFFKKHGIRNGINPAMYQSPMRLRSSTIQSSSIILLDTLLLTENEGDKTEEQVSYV

For the compound `CCOc1nc2cccc(C(=O)O)c2n1Cc1ccc(-c2ccccc2-c2nnn[nH]2)cc1`, the AC50 in test [1] was above 30 µM; in test [2], above 30 µM; in test [3], 16 µM; in [4] it was above 30 µM; in test [5] it was above 10 µM; in [6], 14 µM. Besides, the AC50 in test [7], in [8] and in test [9] was above 30 µM throughout.
For the compound `CCOc1cc([C@@H](CS(C)(=O)=O)N2C(=O)c3cccc(NC(C)=O)c3C2=O)ccc1OC`, the half-maximal activity concentration (AC50) was above 30 µM in test [1]; above 30 µM in [2]; 4.5 µM in test [3]; above 30 µM in test [4]; above 30 µM in test [6]; above 30 µM in test [7]. In addition, the AC50 in test [8] and in test [9] was above 30 µM throughout.
With `CC(=O)Nc1ccc(CC(=O)O)cc1` [ACTARIT], the half-maximal activity concentration (AC50) in [1], in test [2], in test [3], in [4], in [5] and in test [6] was above 30 µM in each case. The AC50 in [7], in test [8] and in [9] was above 30 µM throughout.
For the compound `CC(C(=O)O)c1ccc2oc(-c3ccc(Cl)cc3)nc2c1` (stereo not given) [BENOXAPROFEN], the AC50 in test [1], in test [2], in test [3], in test [4], in test [5] and in test [6] was above 30 µM in each case. The AC50 in test [7] was above 30 µM; in test [8], above 30 µM; in test [9], 26 µM.
For the compound `CC1(C)S[C@@H]2[C@H](NC(=O)C(C(=O)O)c3ccccc3)C(=O)N2[C@H]1C(=O)O` (stereo not given in full) [CARBENICILLIN], the AC50 in test [1], in [2], in test [3], in test [4], in test [5] and in [6] was above 30 µM throughout. The AC50 in [7], in [8] and in [9] was above 30 µM each time.
Take `CC(C)NC(=N)NC(=N)Nc1ccc(Cl)c(Cl)c1` [CHLORPROGUANIL]: the AC50 is above 30 µM in test [1]; 12.2 µM in [3]; above 30 µM in test [4]; above 30 µM in [5]; 7.9 µM in test [6]; above 30 µM in [8]. Besides, the AC50 in [9] is above 30 µM.
For the compound `Cc1cc(C2CCCCC2)n(O)c(=O)c1` [CICLOPIROX], the AC50 in test [1], in [2], in [7] and in test [9] was above 30 µM in each case.
For `Clc1ccc(Cn2c(CN3CCCC3)nc3ccccc32)cc1` [CLEMIZOLE], the AC50 in test [1] is above 30 µM; in test [2], above 10 µM; in [4], above 30 µM; in [6], above 30 µM; in [7], above 30 µM; in [8], above 30 µM. Also, in test [9], the AC50 was above 30 µM.
Regarding `Cc1nc(Nc2ncc(C(=O)Nc3c(C)cccc3Cl)s2)cc(N2CCN(CCO)CC2)n1` [DASATINIB], the AC50 is above 30 µM in test [1]; above 30 µM in test [2]; 6.3 µM in [3]; above 30 µM in test [5]; 14.1 µM in test [6]; above 30 µM in [7]. The AC50 in [8] and in test [9] was above 30 µM throughout.
As for `CC(C)Cc1ccc([C@H](C)C(=O)O)cc1` [DEXIBUPROFEN], the AC50 in [1], in test [2], in [3], in test [4], in [6] and in [7] was above 30 µM in each case. The concentration at half-maximal activity (AC50) in [8] and in test [9] was above 30 µM each time.
In the case of `CNC[C@H](O)c1ccc(O)c(O)c1` [EPINEPHRINE], the concentration at half-maximal activity (AC50) in [2], in test [3], in test [4], in test [6], in [7] and in test [9] was above 30 µM each time.
For the compound `Cc1onc(-c2c(F)cccc2Cl)c1C(=O)N[C@@H]1C(=O)N2[C@@H]1SC(C)(C)[C@@H]2C(=O)O` [FLOXACILLIN], the AC50 in test [1], in test [2], in test [3], in test [4], in test [6] and in test [7] was above 30 µM throughout. Besides, the AC50 in test [8] and in [9] was above 30 µM each time.
As for `CC[C@@H](CO)NC(=O)[C@@H]1C=C2c3cccc4c3c(cn4C)C[C@H]2N(C)C1` [METHYSERGIDE], the concentration at half-maximal activity (AC50) in test [1] was 0.88 µM; in test [2], above 30 µM; in [4], above 10 µM; in test [5], 2.78 µM; in test [6], 0.0082 µM; in test [7], above 30 µM. In test [9], the AC50 is above 10 µM.
`CNC(=C[N+](=O)[O-])NCCSCc1csc(CN(C)C)n1` [NIZATIDINE]: the AC50 was above 10 µM in [2]; above 10 µM in [3]; above 10 µM in [4]; above 10 µM in [5]; above 30 µM in test [6]; above 10 µM in [7]. The AC50 in test [8] and in test [9] was above 10 µM in each case.
For the compound `CN1Cc2c(N)cccc2C(c2ccccc2)C1` (stereo not given) [NOMIFENSINE], the AC50 in [1], in [2], in test [4], in test [5], in test [7] and in test [8] was above 30 µM each time. Moreover, the AC50 in test [9] was above 30 µM.
For the compound `CCCc1cc(=O)[nH]c(=S)[nH]1` [PROPYLTHIOURACIL], the AC50 is above 10 µM in test [2]; above 10 µM in test [3]; above 10 µM in test [4]; above 10 µM in test [5]; above 30 µM in [6]; above 10 µM in test [7]. Besides, the AC50 in test [8] and in [9] was above 10 µM each time.
As for `S=P(N1CC1)(N1CC1)N1CC1` [THIOTEPA], the AC50 in [1] is above 30 µM; in test [3], 1.6 µM; in test [4] it was above 30 µM; in [6] it was 9.4 µM; in test [7], above 30 µM; in test [8], above 30 µM. In test [9], this compound yielded an AC50 above 30 µM.
Turning to `COc1cc(C(=O)NS(=O)(=O)c2ccccc2C)ccc1Cc1cn(C)c2ccc(NC(=O)OC3CCCC3)cc12` [ZAFIRLUKAST], the AC50 in [1] was above 30 µM; in test [4], above 10 µM; in test [5] it was above 10 µM; in test [7], above 30 µM; in [8], above 10 µM; in test [9] it was above 10 µM.
